Here are results for 20 compounds from ChEMBL document CHEMBL4000181, “Synthesis and biological screening of novel 2-morpholinoquinoline nucleus clubbed with 1,2,4-oxadiazole motifs” (Eur J Med Chem, 2017).

The subject of one series is Vibrio cholerae. The series is described as follows: Antibacterial activity against Vibrio cholerae MTCC 3906 after 24 to 48 hrs by broth microdilution method. Type of series: functional.
The next series relates to Bacillus subtilis. The series is described as follows: Antibacterial activity against Bacillus subtilis MTCC 441 after 24 to 48 hrs by broth microdilution method. Type of series: functional.
A further series deals with Salmonella typhi. The experiment in a line: Antibacterial activity against Salmonella typhi MTCC 98 after 24 to 48 hrs by broth microdilution method. The format is functional, Salmonella enterica subsp. enterica serovar Typhi. The settings on record: Salmonella enterica.
For a further series, the system named is Clostridium tetani. The series is described as follows: Antibacterial activity against Clostridium tetani MTCC 449 after 24 to 48 hrs by broth microdilution method. The format is functional.
A further series deals with Streptococcus pneumoniae. The experiment in a line: Antibacterial activity against Streptococcus pneumoniae MTCC 1936 after 24 to 48 hrs by broth microdilution method. The format is functional.
The subject of another series is Escherichia coli. The experiment in a line: Antibacterial activity against Escherichia coli MTCC 443 after 24 to 48 hrs by broth microdilution method. Type of series: functional.
The next series concerns Aspergillus fumigatus. The series is described as follows: Antifungal activity against Aspergillus fumigatus MTCC 3008 after 24 to 48 hrs by broth microdilution method. Type of series: functional.
Another series has as its system Candida albicans. The series is described as follows: Antifungal activity against Candida albicans MTCC 227 after 24 to 48 hrs by broth microdilution method. The format is functional.
Series [1] deals with Schizosaccharomyces pombe. The experiment in a line: Toxicity in Schizosaccharomyces pombe Var. Paul Linder 3360 assessed as dead cells at 2.5 to 12.5 ug/ml after 17 hrs by trypan blue dye-based microscopic method.

Values after ≈ are worked out from the molar mass of the structure shown.

In the case of `CC1(C)S[C@@H]2[C@H](NC(=O)[C@H](N)c3ccccc3)C(=O)N2[C@H]1C(=O)O` [AMPICILLIN], the MIC against Vibrio cholerae stood at 286 µM (≈ 99.9 µg/mL); against Bacillus subtilis it was 715 µM (≈ 250 µg/mL); against Salmonella typhi it was 286 µM (≈ 99.9 µg/mL); in the series with Clostridium tetani, 715 µM (≈ 250 µg/mL); against Streptococcus pneumoniae, 286 µM (≈ 99.9 µg/mL); in the series on Escherichia coli it was 286 µM (≈ 99.9 µg/mL).

With `Cc1ccc2nc(N3CCOCC3)c(-c3noc(-c4ccc([N+](=O)[O-])cc4)n3)cc2c1`, the MIC in the series on Vibrio cholerae worked out at 239 µM (≈ 99.8 µg/mL); in the series with Bacillus subtilis it was 239 µM (≈ 99.8 µg/mL); in the series on Aspergillus fumigatus, 1200 µM (≈ 500 µg/mL); in the series with Candida albicans, 1140 µM (≈ 476 µg/mL); against Salmonella typhi, 599 µM (≈ 250 µg/mL); in the series on Clostridium tetani, 149 µM (≈ 62.2 µg/mL). Also, the MIC against Streptococcus pneumoniae is 149 µM (≈ 62.2 µg/mL); against Escherichia coli, 239 µM (≈ 99.8 µg/mL). In addition, in series [1], the Activity result is “Toxic”.

With `Brc1ccc(-c2nc(-c3cc4ccccc4nc3N3CCOCC3)no2)cc1`, the MIC with Vibrio cholerae turned out to be 228 µM (≈ 99.7 µg/mL); against Bacillus subtilis, 457 µM (≈ 200 µg/mL); in the series on Aspergillus fumigatus, 2290 µM (≈ 1000 µg/mL); with Candida albicans it was 1120 µM (≈ 488 µg/mL); against Salmonella typhi, 228 µM (≈ 99.7 µg/mL); in the series on Clostridium tetani, 572 µM (≈ 250 µg/mL). Also, the MIC was 286 µM (≈ 125 µg/mL) with Streptococcus pneumoniae and 572 µM (≈ 250 µg/mL) in the series with Escherichia coli. Moreover, in series [1], the Activity entry is recorded as “Non-Toxic”.

In the case of `Cc1ccc2nc(N3CCOCC3)c(-c3noc(-c4ccc(Br)cc4)n3)cc2c1`, the MIC came to 554 µM (≈ 250 µg/mL) with Vibrio cholerae; 1110 µM (≈ 500 µg/mL) against Bacillus subtilis; 1110 µM (≈ 500 µg/mL) with Aspergillus fumigatus; 2340 µM (≈ 1060 µg/mL) against Candida albicans; 443 µM (≈ 200 µg/mL) against Salmonella typhi; 221 µM (≈ 99.7 µg/mL) in the series on Clostridium tetani. Also, the MIC against Streptococcus pneumoniae worked out at 221 µM (≈ 99.7 µg/mL); in the series with Escherichia coli it was 138 µM (≈ 62.3 µg/mL).

As to `O=C(O)c1cn(C2CC2)c2cc(N3CCNCC3)c(F)cc2c1=O` [CIPROFLOXACIN], the MIC was found to be 31 µM (≈ 10.3 µg/mL) in the series on Vibrio cholerae; 310 µM (≈ 103 µg/mL) with Bacillus subtilis; 31 µM (≈ 10.3 µg/mL) against Salmonella typhi; 31 µM (≈ 10.3 µg/mL) in the series on Streptococcus pneumoniae; 31 µM (≈ 10.3 µg/mL) against Escherichia coli.

For `CCn1cc(C(=O)O)c(=O)c2cc(F)c(N3CCNCC3)cc21` [NORFLOXACIN], the MIC against Vibrio cholerae, in the series on Bacillus subtilis, in the series on Salmonella typhi, against Clostridium tetani, in the series with Streptococcus pneumoniae and with Escherichia coli was 154 µM (≈ 49.2 µg/mL) throughout.

As for `Cc1ccc2nc(N3CCOCC3)c(-c3noc(-c4ccc(C(F)(F)F)cc4)n3)cc2c1`, the MIC in the series on Vibrio cholerae worked out at 227 µM (≈ 100 µg/mL); against Bacillus subtilis, 454 µM (≈ 200 µg/mL); in the series on Aspergillus fumigatus it was 1140 µM (≈ 500 µg/mL); against Candida albicans, 568 µM (≈ 250 µg/mL); against Salmonella typhi, 454 µM (≈ 200 µg/mL); in the series on Clostridium tetani it was 568 µM (≈ 250 µg/mL). Besides, the results for the minimal inhibitory concentration (MIC) against Streptococcus pneumoniae and against Escherichia coli were 454 µM (≈ 200 µg/mL) and 227 µM (≈ 100 µg/mL), respectively. For the same compound, the Activity result in series [1] is listed as “Non-Toxic”.

With `COc1ccc(-c2nc(-c3cc4ccccc4nc3N3CCOCC3)no2)cc1`, the MIC against Vibrio cholerae is 644 µM (≈ 250 µg/mL); in the series on Bacillus subtilis it was 257 µM (≈ 99.8 µg/mL); against Aspergillus fumigatus, 2580 µM (≈ 1000 µg/mL); in the series on Candida albicans, 2580 µM (≈ 1000 µg/mL); with Salmonella typhi, 515 µM (≈ 200 µg/mL); against Clostridium tetani it was 1290 µM (≈ 500 µg/mL). In addition, the MIC against Streptococcus pneumoniae came out at 1290 µM (≈ 500 µg/mL); against Escherichia coli, 257 µM (≈ 99.8 µg/mL). Moreover, the Activity result in series [1] is on record as “Non-Toxic”.

On to NYSTATIN, for which the MIC against Aspergillus fumigatus and against Candida albicans was 107 µM in each case.

With `COC1=CC(=O)C[C@@H](C)[C@]12Oc1c(Cl)c(OC)cc(OC)c1C2=O` [GRISEOFULVIN], the MIC against Aspergillus fumigatus was found to be 283 µM (≈ 99.8 µg/mL); against Candida albicans it was 1150 µM (≈ 405 µg/mL).

With `FC(F)(F)c1cccc(-c2nc(-c3cc4ccccc4nc3N3CCOCC3)no2)c1`, the MIC against Vibrio cholerae was 234 µM (≈ 99.8 µg/mL); against Bacillus subtilis, 234 µM (≈ 99.8 µg/mL); in the series with Aspergillus fumigatus, 234 µM (≈ 99.8 µg/mL); in the series on Candida albicans, 1130 µM (≈ 482 µg/mL); in the series on Salmonella typhi, 146 µM (≈ 62.3 µg/mL); against Clostridium tetani, 469 µM (≈ 200 µg/mL). For the same compound, the MIC against Streptococcus pneumoniae and with Escherichia coli was 234 µM (≈ 99.8 µg/mL) in each case.

Consider `c1ccc(-c2nc(-c3cc4ccccc4nc3N3CCOCC3)no2)cc1`, for which the MIC with Vibrio cholerae came out at 1400 µM (≈ 500 µg/mL); in the series on Bacillus subtilis, 1400 µM (≈ 500 µg/mL); against Aspergillus fumigatus it was 1400 µM (≈ 500 µg/mL); in the series with Candida albicans, 2790 µM (≈ 1000 µg/mL); in the series on Salmonella typhi, 1400 µM (≈ 500 µg/mL); in the series on Clostridium tetani it was 1400 µM (≈ 500 µg/mL). Also, the MIC with Streptococcus pneumoniae was found to be 698 µM (≈ 250 µg/mL); against Escherichia coli it was 279 µM (≈ 100 µg/mL).

In the case of `O=[N+]([O-])c1ccc(-c2nc(-c3cc4ccccc4nc3N3CCOCC3)no2)cc1`, the MIC with Vibrio cholerae is 620 µM (≈ 250 µg/mL); in the series on Bacillus subtilis, 155 µM (≈ 62.5 µg/mL); against Aspergillus fumigatus, 248 µM (≈ 100 µg/mL); against Candida albicans, 1130 µM (≈ 456 µg/mL); against Salmonella typhi, 155 µM (≈ 62.5 µg/mL); in the series with Clostridium tetani, 155 µM (≈ 62.5 µg/mL). Further, the minimal inhibitory concentration (MIC) against Streptococcus pneumoniae came to 248 µM (≈ 100 µg/mL); in the series with Escherichia coli, 620 µM (≈ 250 µg/mL). The Activity result in [1] is on record as “Toxic”.

Regarding `FC(F)(F)c1ccc(-c2nc(-c3cc4ccccc4nc3N3CCOCC3)no2)cc1`, the MIC turned out to be 586 µM (≈ 250 µg/mL) against Vibrio cholerae; 146 µM (≈ 62.3 µg/mL) against Bacillus subtilis; 146 µM (≈ 62.3 µg/mL) with Aspergillus fumigatus; 2350 µM (≈ 1000 µg/mL) in the series with Candida albicans; 146 µM (≈ 62.3 µg/mL) against Salmonella typhi; 146 µM (≈ 62.3 µg/mL) in the series with Clostridium tetani. Further, the minimal inhibitory concentration (MIC) stood at 146 µM (≈ 62.3 µg/mL) against Streptococcus pneumoniae and 586 µM (≈ 250 µg/mL) in the series with Escherichia coli.

As for `COc1ccc(-c2nc(-c3cc4cc(C)ccc4nc3N3CCOCC3)no2)cc1`, the minimum inhibitory concentration (MIC) against Vibrio cholerae worked out at 497 µM (≈ 200 µg/mL); in the series on Bacillus subtilis it was 621 µM (≈ 250 µg/mL); in the series with Aspergillus fumigatus, 2490 µM (≈ 1000 µg/mL); in the series on Candida albicans, 1240 µM (≈ 500 µg/mL); in the series with Salmonella typhi it was 248 µM (≈ 99.8 µg/mL); against Clostridium tetani it was 621 µM (≈ 250 µg/mL). Besides, the minimal inhibitory concentration (MIC) against Streptococcus pneumoniae was found to be 310 µM (≈ 125 µg/mL); with Escherichia coli it was 497 µM (≈ 200 µg/mL).

`Clc1ccc(-c2nc(-c3cc4ccccc4nc3N3CCOCC3)no2)cc1`: the MIC in the series with Vibrio cholerae stood at 255 µM (≈ 100 µg/mL); in the series with Bacillus subtilis, 255 µM (≈ 100 µg/mL); with Aspergillus fumigatus, 255 µM (≈ 100 µg/mL); against Candida albicans, 637 µM (≈ 250 µg/mL); with Salmonella typhi, 255 µM (≈ 100 µg/mL); against Clostridium tetani, 159 µM (≈ 62.5 µg/mL). Moreover, the MIC with Streptococcus pneumoniae was 159 µM (≈ 62.5 µg/mL); against Escherichia coli it was 510 µM (≈ 200 µg/mL). For the same compound, the Activity result in series [1] is given as “Toxic”.

With `O=C(N[C@H](CO)[C@H](O)c1ccc([N+](=O)[O-])cc1)C(Cl)Cl` [CHLORAMPHENICOL], the MIC against Vibrio cholerae came out at 75 µM (≈ 24.2 µg/mL); in the series with Bacillus subtilis it was 150 µM (≈ 48.5 µg/mL); in the series on Salmonella typhi it was 75 µM (≈ 24.2 µg/mL); in the series on Clostridium tetani, 301 µM (≈ 97.3 µg/mL); against Streptococcus pneumoniae, 150 µM (≈ 48.5 µg/mL); in the series with Escherichia coli it was 75 µM (≈ 24.2 µg/mL).

Consider `Cc1ccc2nc(N3CCOCC3)c(-c3noc(-c4cccc(C(F)(F)F)c4)n3)cc2c1`, for which the MIC with Vibrio cholerae came to 568 µM (≈ 250 µg/mL); in the series on Bacillus subtilis it was 568 µM (≈ 250 µg/mL); with Aspergillus fumigatus, 1140 µM (≈ 500 µg/mL); with Candida albicans it was 2270 µM (≈ 1000 µg/mL); with Salmonella typhi, 568 µM (≈ 250 µg/mL); with Clostridium tetani, 1140 µM (≈ 500 µg/mL). For the same compound, the MIC with Streptococcus pneumoniae came to 227 µM (≈ 100 µg/mL); in the series with Escherichia coli it was 454 µM (≈ 200 µg/mL). Moreover, the Activity entry in series [1] is reported as “Non-Toxic”.

Regarding `Cc1ccc2nc(N3CCOCC3)c(-c3noc(-c4ccc(Cl)cc4)n3)cc2c1`, the MIC with Vibrio cholerae was found to be 153 µM (≈ 62.3 µg/mL); against Bacillus subtilis, 153 µM (≈ 62.3 µg/mL); in the series on Aspergillus fumigatus it was 246 µM (≈ 100 µg/mL); in the series on Candida albicans, 246 µM (≈ 100 µg/mL); against Salmonella typhi, 246 µM (≈ 100 µg/mL); with Clostridium tetani, 200 µM (≈ 81.4 µg/mL). Moreover, the MIC in the series on Streptococcus pneumoniae amounted to 246 µM (≈ 100 µg/mL); against Escherichia coli, 153 µM (≈ 62.3 µg/mL). Also, the Activity result in [1] was “Toxic”.

Take `Cc1ccc2nc(N3CCOCC3)c(-c3noc(-c4ccccc4)n3)cc2c1`: the MIC with Vibrio cholerae was 268 µM (≈ 99.8 µg/mL); in the series with Bacillus subtilis, 1340 µM (≈ 501 µg/mL); with Aspergillus fumigatus it was 1340 µM (≈ 501 µg/mL); with Candida albicans, 2690 µM (≈ 1000 µg/mL); in the series on Salmonella typhi, 1340 µM (≈ 501 µg/mL); in the series with Clostridium tetani, 268 µM (≈ 99.8 µg/mL). Further, the MIC against Streptococcus pneumoniae and in the series with Escherichia coli was 672 µM (≈ 250 µg/mL) each time.
